Literature values as cited in patent US20220000751A1, “METHOD FOR PREPARING AND USING HAIR TREATMENT AGENTS WITH ORGANIC C1-C6-ALKOXY-SILANES” (Henkel AG & Co. KGaA, priority 2020, published 2022).

Conditions: 25° C.

Compound | solubility in water | solubility in water (in words)
CCN(Cc1cccc(S(=O)(=O)O)c1)c1ccc(C(=C2C=CC(=[N+](CC)Cc3cccc(S(=O)(=O)O)c3)C=C2)c2ccccc2S(=O)(=O)[O-])cc1 [Acid Blue 9] | more than 20 % by weight | –
O=S(=O)(O)c1ccc(N=Nc2c(O)ccc3ccccc23)cc1 [Acid Orange 7, 4-[(2-hydroxy-1-naphthyl)azo]benzene sulphonate] | more than 7 g/L | –
O=C(O)C1=NN(c2ccc(S(=O)(=O)O)cc2)C(=O)C1N=Nc1ccc(S(=O)(=O)O)cc1 (stereo not drawn) [Acid Yellow 23, 4,5-dihydro-5-oxo-1-(4-sulfophenyl)-4-((4-sulfophenyl)azo)-1H-pyrazole-3-carboxylic acid] | – | highly soluble
